From patent US20250188078A1, “SMALL MOLECULE INHIBITORS OF THE CRL4 UBIQUITIN LIGASE” (Cornell University, priority 2022, published 2025) come the findings set out here.

One may read the IC50 as the concentration that inhibits the measured activity by half. Usually Kd stands for the concentration at which binding is half-saturated. What is called EC50 is the midpoint of the concentration-response curve.

Each structure is given as a SMILES string.

Data set [1] concerns the target CUL4A-DDB1-BPB interaction (Homo sapiens (Human), UniProt Q16531). Description: AlphaLISA in vitro binding assay, CUL4A and DDB1-BPB binding. As to conditions: inhibition of CUL4A and DDB1-BPB binding. The essentials: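 Compound disruption of CUL4A binding to DDB1-BPB measured by AlphaLISA/AlphaScreen bead proximity in 384-well format. IC50 from nonlinear log(inhibitor)-vs-response curve fit.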
(In general: In Alpha technology, singlet oxygen from a donor bead excites a nearby acceptor bead.)

In another data set the target is DDB1-BPB (Homo sapiens (Human), UniProt Q16531). The data set is described as follows: Microscale Thermophoresis (MST) binding to DDB1-BPB. As to conditions: labeled DDB1-BPB, 25° C. The method, then: Kd represents dissociation constant, which measures the affinity of small molecule binding to the scaffold DDB1-BPB by Microscale Thermophoresis (MST) (see Table 1, column 9). MST experiments were performed on a Monolith NT 115 system (Nano Temper Technologies, Munich, Germany) using 100% LED and 60% IR-laser power (https://physiology.case.edu/media/eq manuals/eq_manual_nano-temper_mst_starting_guide.pdf, hereby incorporated by reference in its entirety for all purposes). The labeling of DDB1-BPB ([…]) was performed in labeling buffer with NHS-Red reactive dye (30 μM) (Nanotemper), which reacts efficiently with the primary amines of the proteins to form a stable dye protein conjugates. The labeling reaction was carried out at RT. A 16-point serial dilution (1:1) was prepared for compound at the final concentration ranged from 200 µM to 3 nM in PBS containing 0.05% tween. The samples were filled into Premium capillaries and measurements were conducted at 25° C. An equation implemented by the software MO-S002 MO Affinity Analysis, provided by the manufacturer, was used for fitting normalized fluorescence values at different concentrations of ligands.
DDB1-BPB, sequence (Q16531 403-706): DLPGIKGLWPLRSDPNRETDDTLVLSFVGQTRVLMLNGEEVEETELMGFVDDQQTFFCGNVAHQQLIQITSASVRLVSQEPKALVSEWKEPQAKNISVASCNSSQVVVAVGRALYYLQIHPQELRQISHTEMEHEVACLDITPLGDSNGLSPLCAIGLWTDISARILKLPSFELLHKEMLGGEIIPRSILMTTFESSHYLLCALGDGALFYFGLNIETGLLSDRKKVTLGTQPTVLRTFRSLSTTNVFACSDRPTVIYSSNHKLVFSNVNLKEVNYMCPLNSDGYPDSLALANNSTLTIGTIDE

The test system of data set [2] is UV-induced CUL4-dependent DDB2 degradation in MEF-F-DDB2 cells. The data set is described as follows: Cell-based assay for inhibition of UV-induced CUL4-dependent DDB2 degradation. The arrangement: key: (+) means that the normalized DDB2/α-tubulin ratio is higher in the compound treated sample than DMSO treated sample; (−) means that no change happens between compound treated sample with control sample. As to conditions: DDB2/α-tubulin by Western blot. In short, it runs like this:
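MEF cells expressing Flag-DDB2, in serum-free medium, treated with DMSO or compound, UV-irradiated (254 nm, 0.2 W/m^2), then harvested. Flag-DDB2 measured by western blot against α-tubulin; (+) denotes normalized DDB2/α-tubulin above DMSO, (−) no change.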
For orientation: In western blotting, separated proteins are transferred to a membrane and probed.

The test system of data set [3] is CUL4A^high MDA-MB-468 breast cancer cells. The data set is described as follows: Cell killing in CUL4-high MDA-MB-468 cells (CellTiter Glo). Type of data set: cell-based. As to conditions: Homo sapiens, 192 h; MDA-MB-468 cells, 8 days treatment; read-out: EC50 CUL4-High Cells (cell killing). The essentials: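 Cells seeded, treated after 24 h with DMSO or compound (0 to 20 μM). Medium and compound replaced every 48 h over 8 days. Viability measured by CellTiter-Glo luminescence; EC50 (50% killing) from log(inhibitor) vs response nonlinear fit.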

Data set [4] deals with CUL4A^low T47D breast cancer cells. Description: Cell killing in CUL4-low T47D cells (CellTiter Glo). Type of data set: cell-based. As to conditions: Homo sapiens, 192 h; T47D cells, 8 days treatment; read-out: EC50 CUL4-Low Cells (cell killing). On the procedure:
EC50 indicates compound concentration can cause 50% cell killing in CUL4° ^w T47D cells (see Table 1, column 7). CUL4A^low T47D breast cancer cells were seeded in 96 well plate. […] Change fresh medium and compounds every 48 hours. After 8 days treatment, cell viability was examined by using CellTiter Glo kit (Promega #7570) following the manufacturer's guidelines (https://www.promega.com/-/media/files/resources/protocols/technical-bulletins/0/celltiter-glo-luminescent-cell-viability-assay-protocol.pdf?rev=0d95c232094b41daa06d0c110d1d916f&sc_lang=en, hereby incorporated by reference in its entirety for all purposes). EC50 concentration was calculated by Prism 8 XY analysis nonlinear regression (curve fit-Log(inhibitor) vs response). EC50 indicates cell killing potential in CUL4 low T47D cell line and the EC50 difference between CUL4^high and CUL4^low cells indicates the small molecule cause specific cell killing.
CUL4A^high MDA-MB-468, CUL4^low (T47D), and MCF7 breast cancer cells were seeded in 96 well plates separately. […] Replace with fresh medium and compounds every 48 hours. After 8 days treatment, cell viability was examined by CellTiter Glo kit (Promega #7570). First, transfer the appropriate volume (10 ml for Cat. #G7570) of CellTiter-Glo® Buffer into the amber bottle containing CellTiter-Glo® Substrate to reconstitute the lyophilized enzyme/substrate mixture. This forms the CellTiter-Glo® Reagent. Second, add CellTiter-Glo® Reagent in an equal volume (100 μl per well for 96-well plates) to all wells. Mix contents for 2 minutes on an orbital shaker to induce cell lysis. Incubate at room temperature for 15 minutes to stabilize luminescent signal. Then record luminescence. EC50 concentration was calculated by Prism 8 XY analysis nonlinear regression (curve fit-Log(inhibitor) vs response).
Background: In ATP-based viability assays light output follows the ATP content of the culture.

The nature of data set [5]: Dynamic light scattering (DLS) solubility assay. Type of data set: physicochemical. As to conditions: normalized intensity ratio of 25 μM compound vs DMSO, in PBS. On the procedure:
Dynamic light scattering (DLS) (see Table 1, column 3) is a tool for studying the diffusion behavior of macromolecules in solution. To profile compound solubility, DLS assay was developed for measuring aggregation of small molecule compounds. Compound stock solution was prepared in DMSO. Dilution series were made for each compound in DMSO to ensure a final 1× assay concentration range of 200 μM to 0.78 μM. For example, if the final DMSO concentration was 1%, compounds were prepared at 100× concentrations ranging from […] to 78 μM. Dilute compounds in PBS solution to final concentration. Place 60 μl/well in 96 well plates and 3 replicates for each sample. Data were collected using a DynaPro Plate Reader III (WYATT Technologies, Inc., USA). The instrument was adjusted to measure the optimal light scattering intensity according to the manufacturer's instructions. […] The ratio over 2 means (−) insoluble. The ratio below 2 means (+) soluble and around 2 means (+/−).

CUL4A-DDB1-BPB interaction, sequence (Q16531 403-706): as above

Regarding `CN(c1ccc(-c2nc(C(=O)O)cc3c2[nH]c2ccc(F)cc23)cc1)S(=O)(=O)c1cccnc1` [PA2-6, 6-fluoro-1-(4-(N-methylpyridine-3-sulfonamido)phenyl)-9H-pyrido[3,4-b]indole-3-carboxylic acid], the IC50 in data set [1] was 0.47 µM. For the same compound, binding on DDB1-BPB was characterised by a dissociation constant (Kd) of 25.5 µM. Further, the “Degradation Inhibition (inhibition of UV-induced DDB2 degradation)” value in data set [2] is on record as “−”. Further, the EC50 is 22.3 µM in data set [3] and greater than 100 µM in data set [4]. Further, in data set [5], the “Solubility (DLS Assay)” value is reported as “-(insoluble)”.
Take `COC(=O)c1cc2c([nH]c3ccccc32)c(-c2ccc(NCc3ccc(F)cc3)cc2)n1` [PA57, methyl 1-[4-[(4-fluorophenyl)methylamino]phenyl]-9H-pyrido[3,4-b]indole-3-carboxylate]: the “AlphaLisa IC50” value in data set [1] is listed as “Neg”. The “Kd (MST)” value at DDB1-BPB is “Insoluble”. Also, the values for the EC50 in data set [3] and in data set [4] were 1.08 µM and 1.6 µM, respectively. Moreover, the “Solubility (DLS Assay)” value in data set [5] was “-(insoluble)”.
Turning to `COC(=O)c1cc2c([nH]c3ccccc32)c(-c2ccc(SCc3ccccc3)cc2)n1` [PA64, methyl 1-(4-benzylsulfanylphenyl)-9H-pyrido[3,4-b]indole-3-carboxylate], the “AlphaLisa IC50” value in data set [1] is recorded as “Neg”. Besides, the “Kd (MST)” value at DDB1-BPB is given as “Insoluble”. Besides, the EC50 in data set [3] was 22.8 µM; in data set [4] it was greater than 20 µM.
`O=C(O)c1cc2c([nH]c3ccccc32)c(-c2ccc(SCc3ccccc3)cc2)n1` [PA66, 1-(4-benzylsulfanylphenyl)-9H-pyrido[3,4-b]indole-3-carboxylic acid]: the half-inhibitory concentration (IC50) in data set [1] is 5.99 ± 0.43 µM. At DDB1-BPB, the Kd stood at 59.6 µM. In addition, the EC50 in data set [3] amounted to 4.41 µM; in data set [4], 4 µM.
For the compound `COC(=O)c1cc2c([nH]c3cccc(F)c32)c(-c2ccc(N(C)S(=O)(=O)c3ccccc3)cc2)n1` [PA99-1, methyl 5-fluoro-1-(4-(N-methylphenylsulfonamido)phenyl)-9H-pyrido[3,4-b]indole-3-carboxylate], the “AlphaLisa IC50” value in data set [1] was “Neg”. The affinity at DDB1-BPB, expressed as Kd, was 321 µM. The “Degradation Inhibition (inhibition of UV-induced DDB2 degradation)” value in data set [2] is on record as “+”. The EC50 in data set [3] is 3.47 µM; in data set [4], greater than 100 µM. Further, in data set [5], the “Solubility (DLS Assay)” value is given as “-(insoluble)”.
For the compound `Cc1ccc2c(c1)[nH]c1c(-c3ccc(N(C)S(=O)(=O)c4ccccc4)cc3)nc(C(=O)O)cc12` [PA106, 1-[4-[benzenesulfonyl(methyl)amino]phenyl]-7-methyl-9H-pyrido[3,4-b]indole-3-carboxylic acid], the IC50 in data set [1] was 7.73 µM. At DDB1-BPB, this compound had a Kd of 443 µM. The EC50 was 7.98 µM in data set [3] and greater than 100 µM in data set [4]. Further, the “Solubility (DLS Assay)” value in data set [5] was “+/−”.
Taken in the same sequence, the figures for `CN(c1ccc(-c2nc(C(=O)O)cc3c2[nH]c2cc(-c4ccccc4)ccc23)cc1)S(=O)(=O)c1ccccc1` [PA115, 1-[4-[benzenesulfonyl(methyl)amino]phenyl]-7-phenyl-9H-pyrido[3,4-b]indole-3-carboxylic acid] were 17.4 ± 7.42 µM, 257 µM, 2.15 µM, 3.86 µM and “-(insoluble)”.
Turning to `CN(c1ccc(-c2nc(C(=O)O)cc3c2[nH]c2cc(Br)ccc23)cc1)S(=O)(=O)c1ccccc1` [PA117, 1-[4-[benzenesulfonyl(methyl)amino]phenyl]-7-bromo-9H-pyrido[3,4-b]indole-3-carboxylic acid], the half-inhibitory concentration (IC50) in data set [1] worked out at 2.5 µM. Further, binding on DDB1-BPB was put at a Kd of 25.4 µM. Moreover, the EC50 in data set [3] turned out to be 3.42 µM; in data set [4], 5.48 µM.
